Two compounds from article PMC11977255 (Communications Biology, 2025) can be followed below.

Structures are written as SMILES.

One may read the Kd as the concentration at which binding is half-saturated.

The target of assay [1] is T1, McyI (Anabaena sp. 90, UniProt Q7WRR2). Kind of assay: isothermal titration calorimetry. The class given is binding. (In general: Isothermal titration calorimetry measures the heat released or taken up as one component is titrated into another.)
Assay [2] deals with T1, McyI. The experiment in a line: reductase assay, absorbance at […] nm. The class given is biochemical. The note with it: 1 mM OAA, 0.2 mM NADPH, 1.6 μM enzyme.

T1 sequence (Q7WRR2 1-337 limits assumed): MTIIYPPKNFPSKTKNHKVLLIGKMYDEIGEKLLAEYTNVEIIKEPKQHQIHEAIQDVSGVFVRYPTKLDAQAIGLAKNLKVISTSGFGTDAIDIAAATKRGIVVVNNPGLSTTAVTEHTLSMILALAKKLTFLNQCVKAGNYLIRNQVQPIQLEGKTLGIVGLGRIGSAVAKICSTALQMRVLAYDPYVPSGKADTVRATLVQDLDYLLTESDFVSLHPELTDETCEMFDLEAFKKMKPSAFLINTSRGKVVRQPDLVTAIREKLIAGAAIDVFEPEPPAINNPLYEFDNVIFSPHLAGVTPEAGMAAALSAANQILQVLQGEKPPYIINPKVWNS

As to `NC(=O)C1=CN([C@@H]2O[C@H](COP(=O)(O)OP(=O)(O)OC[C@H]3O[C@@H](n4cnc5c(N)ncnc54)[C@H](OP(=O)(O)O)[C@@H]3O)[C@@H](O)[C@H]2O)C=CC1` [NADPH], in assay [1], the affinity, expressed as Kd, was 16 µM.

Turning to `O=C(O)CC(=O)C(=O)O` [OAA], in assay [2], the “reductase assay, absorbance at 340 nm” value is “The enzyme, OAA, and the nicotinamide cofactor”.
